The target in the experiment is human APJ receptor (Homo sapiens (Human), UniProt P35414). Briefly: [35S]GTPγS binding assay on membranes from CHO cells stably expressing human APJ receptor. It is filed as biochemical. As to conditions: means of several independent experiments, read-out: Activity hAPJ SPA EC50 IP. How it is done: The human APJ receptor was cloned by polymerase chain reaction and the gene encoding the receptor was subcloned in pFLAG-CMV™-3 expression vector (Sigma, Saint Louis, Mo. USA) in-house at Amgen. A GTPγS binding assay was performed on membranes prepared from CHO cells stably expressing human APJ receptor. The optimum experimental conditions for the concentrations of GDP, MgCl2, and NaCl in the assay buffer were initially determined. […] Incubation was at RT for 90 min and the microplate was read using a ViewLux™ ultra HTS Microplate Imager (PerkinElmer, Inc.). All the results presented are means of several independent experiments and analyzed by non-linear regression methods using the commercially available program Prism (GraphPad, San Diego, Calif.) providing the EC50 values detailed in Table 28.
Chain of human APJ receptor (P35414 whole entry): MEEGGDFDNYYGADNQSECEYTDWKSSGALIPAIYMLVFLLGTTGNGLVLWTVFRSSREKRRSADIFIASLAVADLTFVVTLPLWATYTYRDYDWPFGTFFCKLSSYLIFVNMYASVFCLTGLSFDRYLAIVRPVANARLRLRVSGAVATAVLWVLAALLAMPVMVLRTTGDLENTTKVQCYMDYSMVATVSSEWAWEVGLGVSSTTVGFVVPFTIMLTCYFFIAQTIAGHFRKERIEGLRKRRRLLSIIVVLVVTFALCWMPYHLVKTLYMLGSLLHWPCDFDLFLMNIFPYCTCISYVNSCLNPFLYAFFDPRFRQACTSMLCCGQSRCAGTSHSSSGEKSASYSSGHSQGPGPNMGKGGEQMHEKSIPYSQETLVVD
In general terms: Binding of GTPγS marks nucleotide exchange on a G protein.
The term EC50 denotes the concentration that produces a half-maximal response. In the case of `COc1ncnc(OC)c1-n1c(NS(=O)(=O)CCc2ccc(Cl)cc2)nnc1-c1ccccc1` [Example 19.0, 2-(4-chlorophenyl)-N-(4-(4,6-dimethoxy-5-pyrimidinyl)-5-phenyl-4H-1,2,4-triazol-3-yl)ethanesulfonamide], the half-maximal effective concentration (EC50) was found to be 40 nM. For `COc1cccc(-c2nnc(NS(=O)(=O)[C@@H](C)[C@H](OC)c3ncc(Cl)cn3)n2[C@H]2CCCOC2)c1` [Example 119.0] the value was 22 nM. Turning to `COc1ncnc(OC)c1-n1c(NS(=O)(=O)[C@H]2CCCN(c3ncc(F)cn3)C2)nnc1-c1ccccc1` (single isomer, unassigned) [Example 28.0, (3S)-N-(4-(4,6-dimethoxy-5-pyrimidinyl)-5-phenyl-4H-1,2,4-triazol-3-yl)-1-(5-fluoro-2-pyrimidinyl)-3-piperidinesulfonamide or (3R)-N-(4-(4,6-dimethoxy-5-pyrimidinyl)-5-phenyl-4H-1,2,4-triazol-3-yl)-1-(5-fluoro-2-pyrimidinyl)-3-piperidinesulfonamide], the EC50 amounted to 410 nM.

Turning to `COc1ncnc(OC)c1-n1c(NS(=O)(=O)[C@H]2CCCN(c3ncc(Cl)cn3)C2)nnc1-c1ccccc1` (single isomer, unassigned) [Example 31.0, (3S)-1-(5-chloro-2-pyrimidinyl)-N-(4-(4,6-dimethoxy-5-pyrimidinyl)-5-phenyl-4H-1,2,4-triazol-3-yl)-3-piperidinesulfonamide or (3R)-1-(5-chloro-2-pyrimidinyl)-N-(4-(4,6-dimethoxy-5-pyrimidinyl)-5-phenyl-4H-1,2,4-triazol-3-yl)-3-piperidinesulfonamide], the EC50 is 340 nM. Consider `COc1ccccc1-c1nnc(NS(=O)(=O)[C@@H](C)[C@H](OC)c2ncc(Cl)cn2)n1[C@@H]1CCCOC1` [Example 118.0], for which the EC50 was 180 nM. Turning to `COc1cccc(OC)c1-n1c(NS(=O)(=O)[C@@H](C)[C@H](OC)c2ncc(C)cn2)nnc1-c1ccc2c(c1)OCO2` [Example 66.0, (1R,2S)-N-(5-(1,3-benzodioxol-5-yl)-4-(2,6-dimethoxyphenyl)-4H-1,2,4-triazol-3-yl)-1-methoxy-1-(5-methyl-2-pyrimidinyl)-2-propanesulfonamide], the EC50 was 0.73 nM. In the case of `COc1cccc(OC)c1-n1c(NS(=O)(=O)c2cncc(Br)c2)nnc1-c1ccccc1` [Example 60.0, 5-bromo-N-(4-(2,6-dimethoxyphenyl)-5-phenyl-4H-1,2,4-triazol-3-yl)-3-pyridinesulfonamide], the EC50 turned out to be 350 nM. In the case of `COc1cccc(OC)c1-n1c(NS(=O)(=O)[C@@H](C)[C@H](OC)c2ncc(C)cn2)nnc1-c1cccc2ncccc12` [Example 90.0], the EC50 worked out at 540 nM. The result for `C[C@H](c1ncc(C#N)cn1)[C@H](C)S(=O)(=O)Nc1nnc(-c2ccccc2)n1-c1c(F)cccc1F` [Example 47.0, (2S,3R)-3-(5-cyano-2-pyrimidinyl)-N-(4-(2,6-difluorophenyl)-5-phenyl-4H-1,2,4-triazol-3-yl)-2-butanesulfonamide] reads 48 nM; that for `Cc1cnc([C@H](OC(C)C)[C@H](C)S(=O)(=O)Nc2nnc(-c3ccccc3)n2C2CCOCC2)nc1` [Example 63.0, (1S,2S)-1-(1-methylethoxy)-1-(5-methyl-2-pyrimidinyl)-N-(5-phenyl-4-(tetrahydro-2H-pyran-4-yl)-4H-1,2,4-triazol-3-yl)-2-propanesulfonamide], 420 nM.

Take `COC[C@@H](C)n1c(NS(=O)(=O)[C@@H](C)[C@H](OC)c2ncc(Cl)cn2)nnc1-c1ccccc1` [Example 124.0]: the EC50 is 57 nM. As to `COc1cccc(OC)c1-n1c(NS(=O)(=O)[C@H]2C[C@@H](OC(C)C)CN(c3ncc(F)cn3)C2)nnc1-c1ccccc1` (single isomer, unassigned) [Example 59.0, (3R,5S)-N-(4-(2,6-dimethoxyphenyl)-5-phenyl-4H-1,2,4-triazol-3-yl)-1-(5-fluoro-2-pyrimidinyl)-5-(1-methylethoxy)-3-piperidinesulfonamide or (3S,5R)-N-(4-(2,6-dimethoxyphenyl)-5-phenyl-4H-1,2,4-triazol-3-yl)-1-(5-fluoro-2-pyrimidinyl)-5-(1-methylethoxy)-3-piperidinesulfonamide], the EC50 is 86 nM. For `COc1cccc(OC)c1-n1c(NS(=O)(=O)[C@H]2CCCN(c3ncc(F)cn3)C2)nnc1-c1ccccc1` (single isomer, unassigned) [Example 21.0, (3S)—N-(4-(2,6-Dimethoxyphenyl)-5-phenyl-4H-1,2,4-triazol-3-yl)-1-(5-fluoro-2-pyrimidinyl)-3-piperidinesulfonamide or (3R)—N-(4-(2,6-dimethoxyphenyl)-5-phenyl-4H-1,2,4-triazol-3-yl)-1-(5-fluoro-2-pyrimidinyl)-3-piperidinesulfonamide] the value was 7.3 nM. As to `COc1cccc(OC)c1-n1c(NS(=O)(=O)[C@@H](C)[C@H](OC)c2ncc(C)cn2)nnc1-c1cccc(OC(F)(F)F)c1` [Example 89.0, (1R,2S)—N-(4-(2,6-Dimethoxyphenyl)-5-(3-(trifluoromethoxy)phenyl)-4H-1,2,4-triazol-3-yl)-1-methoxy-1-(5-methyl-2-pyrimidinyl)-2-propanesulfonamide], the EC50 amounted to 0.47 nM. `CO[C@H](c1ncc(Cl)cn1)[C@H](C)S(=O)(=O)Nc1nnc(-c2ccccc2)n1C1CCOCC1` [Example 62.0, (1R,2S)-1-(5-chloro-2-pyrimidinyl)-1-methoxy-N-(5-phenyl-4-(tetrahydro-2H-pyran-4-yl)-4H-1,2,4-triazol-3-yl)-2-propanesulfonamide]: the EC50 is 74 nM. Regarding `COc1cccc(OC)c1-n1c(NS(=O)(=O)[C@@H](C)[C@H](OC)c2ncc(C)cn2)nnc1-c1cccc(F)c1` [Example 85.0, (1R,2S)—N-(4-(2,6-Dimethoxyphenyl)-5-(3-fluorophenyl)-4H-1,2,4-triazol-3-yl)-1-methoxy-1-(5-methyl-2-pyrimidinyl)-2-propanesulfonamide], the EC50 is 0.92 nM.

As to `COc1cccc(OC)c1-n1c(NS(=O)(=O)[C@@H](C)[C@H](OC)c2ncc(C)cn2)nnc1-c1ccc(C)cc1` [Example 78.0, (1R,2S)-N-(4-(2,6-dimethoxyphenyl)-5-(4-methylphenyl)-4H-1,2,4-triazol-3-yl)-1-methoxy-1-(5-methyl-2-pyrimidinyl)-2-propanesulfonamide], the EC50 came out at 2.4 nM. In the case of `COc1ncnc(OC)c1-n1c(NS(=O)(=O)[C@H]2CCCN(c3ncc(Cl)cn3)C2)nnc1-c1ccccc1` (single isomer, unassigned) [Example 32.0, (3S)-1-(5-chloro-2-pyrimidinyl)-N-(4-(4,6-dimethoxy-5-pyrimidinyl)-5-phenyl-4H-1,2,4-triazol-3-yl)-3-piperidinesulfonamide or (3R)-1-(5-chloro-2-pyrimidinyl)-N-(4-(4,6-dimethoxy-5-pyrimidinyl)-5-phenyl-4H-1,2,4-triazol-3-yl)-3-piperidinesulfonamide], the EC50 stood at 17 nM.

Regarding `COc1ncnc(OC)c1-n1c(NS(=O)(=O)CCc2ccc(F)cc2C#N)nnc1-c1ccccc1` [Example 10.0, 2-(2-cyano-4-fluorophenyl)-N-(4-(4,6-dimethoxy-5-pyrimidinyl)-5-phenyl-4H-1,2,4-triazol-3-yl)ethanesulfonamide], the 50% effective concentration (EC50) was 42 nM. `COCC(COC)n1c(NS(=O)(=O)[C@@H](C)[C@H](OC)c2ncc(Cl)cn2)nnc1-c1ccccc1` [Example 96.0, (1R,2S)-1-(5-Chloro-2-pyrimidinyl)-N-(4-(1,3-dimethoxy-2-propanyl)-5-phenyl-4H-1,2,4-triazol-3-yl)-1-methoxy-2-propanesulfonamide]: the 50% effective concentration (EC50) was determined as 16 nM. For the compound `COc1ncnc(OC)c1-n1c(NS(=O)(=O)[C@@H](C)[C@H](C)c2ncc(C)cn2)nnc1-c1ccccc1` [Example 5.0, (2S,3R)-N-(4-(4,6-dimethoxy-5-pyrimidinyl)-5-phenyl-4H-1,2,4-triazol-3-yl)-3-(5-methyl-2-pyrimidinyl)-2-butanesulfonamide], the half-maximal effective concentration (EC50) was 2.3 nM. As for `COc1ncnc(OC)c1-n1c(NS(=O)(=O)[C@@H](C)[C@@H](OC(C)C)c2ncc(C)cn2)nnc1-c1ccccc1` [Example 14.0, (1S,2S)-N-(4-(4,6-dimethoxy-5-pyrimidinyl)-5-phenyl-4H-1,2,4-triazol-3-yl)-1-(1-methylethoxy)-1-(5-methyl-2-pyrimidinyl)-2-propanesulfonamide], the concentration for a half-maximal effect (EC50) was determined as 0.55 nM.

With `COc1cccc(OC)c1-n1c(NS(=O)(=O)[C@H]2CCCN(c3ncc(Cl)cn3)C2)nnc1-c1ccccc1` (single isomer, unassigned) [Example 35.0, (S)-1-(5-Chloropyrimidin-2-yl)-N-(4-(2,6-dimethoxyphenyl)-5-phenyl-4H-1,2,4-triazol-3-yl)piperidine-3-sulfonamide or (R)-1-(5-chloropyrimidin-2-yl)-N-(4-(2,6-dimethoxyphenyl)-5-phenyl-4H-1,2,4-triazol-3-yl)piperidine-3-sulfonamide], the EC50 is 280 nM.

Regarding `COc1cccc(OC)c1-n1c(NS(=O)(=O)[C@@H](C)[C@H](OC)c2ncc(C)cn2)nnc1-c1ccc(F)c(F)c1` [Example 72.0, (1R,2S)-N-(5-(3,4-difluorophenyl)-4-(2,6-dimethoxyphenyl)-4H-1,2,4-triazol-3-yl)-1-methoxy-1-(5-methyl-2-pyrimidinyl)-2-propanesulfonamide], the EC50 turned out to be 4.5 nM. In the case of `COc1cccc(OC)c1-n1c(NS(=O)(=O)[C@@H](C)[C@@H](OC(C)C)c2ncc(C)cn2)nnc1-c1ccccc1` [Example 13.0, (1S,2S)-N-(4-(2,6-dimethoxyphenyl)-5-phenyl-4H-1,2,4-triazol-3-yl)-1-(1-methylethoxy)-1-(5-methyl-2-pyrimidinyl)-2-propanesulfonamide], the 50% effective concentration (EC50) is 0.22 nM.

Source of the values: patent US10906890B2, “Triazole phenyl compounds as agonists of the APJ receptor” (AMGEN INC., priority 2016, dated 2021).
